Measurements as given in US12220550B2, “Transdermal delivery device, methods of using and making the same” (BUDDHIST TZU CHI MEDICAL FOUNDATION, priority 2021, dated 2025).

Experiment: In vitro drug release from drug-loaded MNs
Assay type: physicochemical
Conditions: from IPN hydrogel MNs, PBS pH 7.4, 37° C., 100 rpm, first 24 hours
Description: The drug-loaded MNs were soaked in 10 mL of PBS solution (pH 7.4) and put in a shaking incubator at 37° C. and 100 rpm to simulate the real drug release environment. About 2.5 mL of the release medium was withdrawn and replenished with an equivalent volume of PBS every half hour for the first 4 hours. Similarly, the released medium was collected at the 5th, 6th, 8th, 12th, and 24th hour followed by every 24 h for 7 days. Then, the cumulative drug released was determined by measuring the UV-Vis absorbance of DOX and LPS at 485 nm and 256 nm, respectively, and then calculated using the standard calibration curve of the free drugs, as shown in FIGS. 14A and B.
Drug release behavior of IPN hydrogel was examined. First, DOX and/or LPS were loaded into the hydrogel by simple mixing with IPN hydrogel pre-gel solution (0.5 mg DOX/MNs and 0.2 mg LPS/MNs) followed by casting MNs and sequential photo-ionic crosslinking to obtained drug loaded solid MNs arrays (DOX loaded MN, LPS loaded MN and LPS/DOX loaded MN). Then, drug loaded MNs were immersed in 10 mL PBS solution and kept in an orbital shaker incubator with a rotation of 100 rpm at 37° C.

| Molecule | cumulative drug release [%] |
| --- | --- |
| COc1cccc2c1C(=O)c1c(O)c3c(c(O)c1C2=O)C[C@@](O)(C(=O)CO)C[C@@H]3O[C@H]1C[C@H](N)[C@H](O)[C@H](C)O1 [DOX, doxorubicin] | ~66.1±7.4 |
| lipopolysaccharide [LPS] | ~59.4±5.5 |
